Biological target: T1, human T-type channel alpha-1H (CaV 3.2) (Homo sapiens, UniProt O95180)
T1 construct: expressed in transfected cells; host or cells: HEK 293
Test: Ca2+ Influx Assay (cell-based fluorescent, FDSS)
Settings: HEK 293 cells expressing human CaV 3.2
Experimental: Inhibition of T-type calcium channel activity was determined by cell-based flu-orescent Ca^2+ influx assay, in which potassium ionophore was added to decrease resting membrane potential and extra-cellular high-K^+ stimulation was used to modulate the membrane potential of the cell. The changes in fluorescent signal were monitored by the cell imaging technology by Hamamatsu Photonics's Functional Drug Screening System (FDSS).
HEK 293 cells expressing the human T-type channel alpha-1H (CaV 3.2) were maintained in DMEM supplemented with 10% heat-inactivated FBS, 100 units/ml Penicillin, 100 microg/ml Streptomycin, 150 microg/ml Zeocin, 300 microg/ml Geneticin. The cells were grown in a 5% CO2 humidified incubator at 37° C.
• 1. Cells were harvested and seeded in a poly-D-lysine coated black-sided clear bottom 384-well plate at density of 10,000 cells/well at 24 hours prior to assay. • 2. Incubate at 37° C. in 5% CO2. Day Two: • 1. Wash each well with assay buffer (see below) and leave 20 RI using plate washer, ELx-405 Select CW (BIO-TEK). • 2. Add 20 μL of assay buffer containing 6 μM Fluo-4-AM (Molecular Probes) and 0.005% Pluronic F-127 to each well. • 3. Incubate the plate at 37° C. for 1 hour. • 4. Wash each well assay buffer (see below) and leave 20 μl using plate washer, ELx-405 Select CW (BIO-TEK). • 5. Add 10 μl of compound solution into each well by FDSS6000 and leave the plate for 4.5 min, and then add 10 μl of potassium ionophore solution. • 6. Add 20 μl of high-K^+ depolarizing solution (see below) and monitor the change of fluorescent signal.
The IC50 values for compounds of the present invention were determined from 7-point dose-response studies. Curves were generated using the average of duplicate wells for each data point. Finally, the IC50 values are calculated with the best-fit dose curve determined by XLfit.

T1 sequence (O95180 whole entry): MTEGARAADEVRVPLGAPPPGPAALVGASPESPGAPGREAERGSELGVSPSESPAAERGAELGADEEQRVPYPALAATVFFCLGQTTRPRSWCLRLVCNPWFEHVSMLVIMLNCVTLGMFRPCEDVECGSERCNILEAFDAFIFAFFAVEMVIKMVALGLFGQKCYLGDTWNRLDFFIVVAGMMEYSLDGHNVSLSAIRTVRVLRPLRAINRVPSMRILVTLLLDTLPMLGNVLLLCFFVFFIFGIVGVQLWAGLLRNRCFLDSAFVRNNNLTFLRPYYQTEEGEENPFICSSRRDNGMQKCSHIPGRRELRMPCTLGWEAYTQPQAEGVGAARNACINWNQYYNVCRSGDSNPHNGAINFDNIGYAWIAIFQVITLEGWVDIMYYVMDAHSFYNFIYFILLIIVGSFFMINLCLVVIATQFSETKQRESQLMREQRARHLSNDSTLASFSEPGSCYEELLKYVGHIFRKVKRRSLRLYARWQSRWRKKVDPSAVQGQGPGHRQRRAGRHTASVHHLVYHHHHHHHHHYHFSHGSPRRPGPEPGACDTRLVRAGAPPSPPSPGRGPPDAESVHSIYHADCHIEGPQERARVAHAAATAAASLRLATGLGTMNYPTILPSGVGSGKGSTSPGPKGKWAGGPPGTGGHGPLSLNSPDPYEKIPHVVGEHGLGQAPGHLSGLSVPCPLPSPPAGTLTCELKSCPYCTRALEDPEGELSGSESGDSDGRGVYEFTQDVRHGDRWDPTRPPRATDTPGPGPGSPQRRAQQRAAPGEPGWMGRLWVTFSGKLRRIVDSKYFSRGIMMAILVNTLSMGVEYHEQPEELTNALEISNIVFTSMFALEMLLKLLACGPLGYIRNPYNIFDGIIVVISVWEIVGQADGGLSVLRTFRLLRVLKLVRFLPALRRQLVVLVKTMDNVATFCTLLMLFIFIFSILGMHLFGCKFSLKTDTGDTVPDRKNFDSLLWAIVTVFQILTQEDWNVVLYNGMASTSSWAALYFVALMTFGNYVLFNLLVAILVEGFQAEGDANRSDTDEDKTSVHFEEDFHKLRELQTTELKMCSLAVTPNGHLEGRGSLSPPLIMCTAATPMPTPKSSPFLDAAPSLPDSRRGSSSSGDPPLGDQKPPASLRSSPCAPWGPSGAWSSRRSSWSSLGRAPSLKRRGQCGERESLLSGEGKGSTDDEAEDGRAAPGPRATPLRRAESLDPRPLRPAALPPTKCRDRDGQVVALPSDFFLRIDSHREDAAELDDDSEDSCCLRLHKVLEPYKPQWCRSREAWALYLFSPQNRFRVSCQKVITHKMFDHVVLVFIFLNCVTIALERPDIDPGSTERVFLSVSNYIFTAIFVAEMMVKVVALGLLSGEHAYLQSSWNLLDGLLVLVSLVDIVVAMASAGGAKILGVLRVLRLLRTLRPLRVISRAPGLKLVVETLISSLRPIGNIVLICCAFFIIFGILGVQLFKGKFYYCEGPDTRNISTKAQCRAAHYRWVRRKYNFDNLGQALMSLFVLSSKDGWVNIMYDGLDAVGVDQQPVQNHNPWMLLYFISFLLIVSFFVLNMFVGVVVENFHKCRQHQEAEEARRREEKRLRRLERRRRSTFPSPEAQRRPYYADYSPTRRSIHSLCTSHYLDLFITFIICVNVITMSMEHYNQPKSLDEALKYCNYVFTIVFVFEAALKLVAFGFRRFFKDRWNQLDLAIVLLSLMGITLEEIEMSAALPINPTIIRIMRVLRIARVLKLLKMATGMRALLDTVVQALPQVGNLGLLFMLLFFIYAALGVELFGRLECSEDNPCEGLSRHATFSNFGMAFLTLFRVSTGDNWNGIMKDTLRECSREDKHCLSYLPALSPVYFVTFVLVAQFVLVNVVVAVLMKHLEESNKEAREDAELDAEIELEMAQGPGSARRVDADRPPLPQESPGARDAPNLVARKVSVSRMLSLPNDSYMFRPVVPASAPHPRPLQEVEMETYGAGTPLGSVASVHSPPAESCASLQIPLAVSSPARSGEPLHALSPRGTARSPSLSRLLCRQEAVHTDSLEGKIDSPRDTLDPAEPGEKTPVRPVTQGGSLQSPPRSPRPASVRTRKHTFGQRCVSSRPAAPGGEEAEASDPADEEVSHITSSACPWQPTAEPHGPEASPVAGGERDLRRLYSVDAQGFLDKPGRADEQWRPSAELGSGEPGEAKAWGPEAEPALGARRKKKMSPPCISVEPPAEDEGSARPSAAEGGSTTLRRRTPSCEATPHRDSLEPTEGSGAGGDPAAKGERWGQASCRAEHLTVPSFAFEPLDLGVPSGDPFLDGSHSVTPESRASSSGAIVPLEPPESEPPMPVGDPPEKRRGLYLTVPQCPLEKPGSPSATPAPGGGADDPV

Compound	IC50
Cc1cc(OCC(F)(F)F)cnc1[C@@H](C)NC(=O)CCc1c[nH]c2ccccc12 [Example 104, (R)-3-(1H-indol-3-yl)-N-(1-(3-methyl-5-(2,2,2-trifluoroethoxy)pyridin-2-yl)ethyl)propanamide]	≤ 300 nM
C[C@@H](NC(=O)C1CC1c1c[nH]c2ccc(F)cc12)c1ccc(OCC(F)(F)F)cn1 (stereo in doubt) [Example 110, trans-2-(5-fluoro-1H-indol-3-yl)-N-((R)-1-(5-(2,2,2-trifluoroethoxy)pyridin-2-yl)ethyl)cyclopropanecarboxamide]	≤ 300 nM
C[C@@H](NC(=O)[C@H]1C[C@@H]1c1cccc(OCc2ccccc2)c1)c1ccc(OCC(F)(F)F)cn1 (stereo in doubt) [Example 240, (1S*,2S*)-2-(3-(benzyloxy)phenyl)-N-((R)-1-(5-(2,2,2-trifluoroethoxy)pyridin-2-yl)ethyl)cyclopropanecarboxamide]	≤ 300 nM
C[C@@H](NC(=O)[C@@H]1C[C@H]1c1c[nH]c2ccccc12)c1ccc(OCC(F)(F)F)cn1 (relative stereo) [Example 134, (1R*,2R*)-2-(1H-indol-3-yl)-N-((R)-1-(5-(2,2,2-trifluoroethoxy)pyridin-2-yl)ethyl)cyclopropanecarboxamide]	≤ 300 nM
C[C@@H](NC(=O)[C@H]1C[C@@H]1COc1cccc(F)c1)c1ccc(OCC(F)(F)F)cn1 (relative stereo) [Example 294, (1S*,2S*)-2-((3-fluorophenoxy)methyl)-N-((R)-1-(5-(2,2,2-trifluoroethoxy)pyridin-2-yl)ethyl)cyclopropanecarboxamide]	≤ 300 nM
COc1ccc([C@H]2C[C@@H]2C(=O)N[C@H](C)c2ccc(OCC3CC3)cn2)cc1C (relative stereo) [Example 307, (1S*,2S*)-N-((R)-1-(5-(cyclopropyl-methoxy)pyridin-2-yl)ethyl)-2-(4-methoxy-3-methylphenyl) cyclopropanecarboxamide]	≤ 300 nM
Cc1cccc([C@H]2C[C@@H]2C(=O)N[C@H](C)c2ccc(OCC3CC3)cn2)c1 (relative stereo) [Example 267, (1S*,2S*)-N-((R)-1-(5-(cyclopropylmethoxy)pyridin-2-yl)ethyl)-2-m-tolylcyclopropanecarboxamide]	≤ 300 nM
COc1ccc([C@@H]2C[C@H]2C(=O)N[C@H](C)c2cnc(OCC(F)(F)F)cn2)cc1C (relative stereo) [Example 310, (1R*,2R*)-2-(4-methoxy-3-methylphenyl)-N-((R)-1-(5-(2,2,2-trifluoroethoxy)pyrazin-2-yl)ethyl)cyclopropanecarboxamide]	≤ 300 nM
C[C@@H](NC(=O)[C@@H]1C[C@H]1c1cccc2[nH]ccc12)c1cnc(OCC(F)(F)F)cn1 (relative stereo) [Example 279, (1R*,2R*)-2-(1H-Indol-4-yl)-N-((R)-1-(5-(2,2,2-trifluoroethoxy)pyrazin-2-yl)ethyl)cyclopropanecarboxamide]	≤ 300 nM
C[C@@H](NC(=O)C1CC1Cn1ccc2ccccc21)c1ccc(OCC(F)(F)F)cn1 (stereo in doubt) [Example 182, trans-2-((1H-indol-1-yl)methyl)-N-((R)-1-(5-(2,2,2-trifluoroethoxy)pyridin-2-yl)ethyl)cyclopropanecarboxamide]	≤ 300 nM
C[C@@H](NC(=O)[C@@H]1C[C@H]1c1nc2ccccc2[nH]1)c1ccc(OCC(F)(F)F)cn1 (relative stereo) [Example 260, (1R*,2R*)-2-(1H-benzo[d]imidazol-2-yl)-N-((R)-1-(5-(2,2,2-trifluoroethoxy)pyridin-2-yl)ethyl)cyclopropanecarboxamide]	≤ 300 nM
C[C@@H](NC(=O)C1CC1c1cc(F)cc(F)c1)c1ccc(OCC2CC2)cn1 (stereo partly drawn) [Example 193, trans-N-((R)-1-(5-(cyclopropylmethoxy)pyridin-2-yl)ethyl)-2-(3,5-difluorophenyl) cyclopropanecarboxamide]	≤ 300 nM
C[C@@H](NC(=O)[C@H]1C[C@@H]1c1cccc2cc[nH]c12)c1ccc(OCC2CC2)cn1 (relative stereo) [Example 316, (1S*,2S*)-N-((R)-1-(5-(cyclopropylmethoxy)pyridin-2-yl)ethyl)-2-(1H-indol-7-yl)cyclopropanecarboxamide]	≤ 300 nM
C[C@@H](NC(=O)[C@@H]1C[C@H]1c1cccc2cc[nH]c12)c1ccc(OCC(F)(F)F)cn1 (relative stereo) [Example 276, (1R*,2R*)-2-(1H-indol-7-yl)-N-((R)-1-(5-(2,2,2-trifluoroethoxy)pyridin-2-yl)ethyl)cyclopropanecarboxamide]	≤ 300 nM
C[C@@H](NC(=O)C1CC1COc1ccc(Cl)cc1)c1ccc(OCC(F)(F)F)cn1 (stereo in doubt) [Example 169, trans-2-((4-chlorophenoxy)methyl)-N-((R)-1-(5-(2,2,2-trifluoroethoxy)pyridin-2-yl)ethyl)cyclopropanecarboxamide]	≤ 300 nM
C[C@@H](NC(=O)[C@H]1C[C@@H]1c1ccc2cc[nH]c2c1)c1ccc(OCC(F)(F)F)cn1 (relative stereo) [Example 203, (1S*,2S*)-2-(1H-indol-6-yl)-N-((R)-1-(5-(2,2,2-trifluoroethoxy)pyridin-2-yl)ethyl)cyclopropanecarboxamide]	≤ 300 nM
C[C@@H](NC(=O)C1CC1c1nc2ccccc2n1C)c1cnc(OCC(F)(F)F)cn1 (stereo in doubt) [Example 244, trans-2-(1-methyl-1H-benzo[d]imidazol-2-yl)-N-((R)-1-(5-(2,2,2-trifluoroethoxy)pyrazin-2-yl)ethyl)cyclopropanecarboxamide]	≤ 300 nM
C[C@@H](NC(=O)C1CC1c1ccc2ccn(CC3(C)COC3)c2c1)c1ccc(OCC(F)(F)F)nc1 (stereo in doubt) [Example 213, trans-2-(1-((3-methyloxetan-3-yl)methyl)-1H-indol-6-yl)-N-((R)-1-(6-(2,2,2-trifluoro-ethoxy)pyridin-3-yl)ethyl)cyclopropanecarboxamide]	≤ 300 nM
C[C@@H](NC(=O)[C@H]1C[C@@H]1c1nc2ccccc2[nH]1)c1cnc(OCC(F)(F)F)cn1 (relative stereo) [Example 286, (1S*,2S*)-2-(1H-benzo[d]imidazol-2-yl)-N-((R)-1-(5-(2,2,2-trifluoroethoxy)pyrazin-2-yl)ethyl)cyclopropanecarboxamide]	≤ 300 nM
C[C@@H](NC(=O)C1CC1c1c[nH]c2ccc(C#N)cc12)c1ccc(OCC(F)(F)F)cn1 (stereo in doubt) [Example 111, trans-2-(5-cyano-1H-indol-3-yl)-N-((R)-1-(5-(2,2,2-trifluoroethoxy)pyridin-2-yl)ethyl)cyclopropanecarboxamide]	≤ 300 nM
C[C@@H](NC(=O)[C@H]1C[C@@H]1c1nc2ccccc2[nH]1)c1ccc(OCC(F)(F)F)nc1 (relative stereo) [Example 287, (1S*,2S*)-2-(1H-benzo[d]imidazol-2-yl)-N-((R)-1-(6-(2,2,2-trifluoroethoxy)pyridin-3-yl)ethyl)cyclopropanecarboxamide]	≤ 300 nM
C[C@@H](NC(=O)[C@H]1C[C@@H]1c1cccc2cc[nH]c12)c1cnc(OCC(F)(F)F)cn1 (relative stereo) [Example 322, (1S*,2S*)-2-(1H-indol-7-yl)-N-((R)-1-(5-(2,2,2-trifluoroethoxy)pyrazin-2-yl)ethyl)cyclopropanecarboxamide]	≤ 300 nM
C[C@@H](NC(=O)[C@H]1C[C@@H]1COc1ccccc1)c1cnc(OCC(F)(F)F)cn1 (relative stereo) [Example 318, (1S*,2S*)-2-(phenoxymethyl)-N-((R)-1-(5-(2,2,2-trifluoroethoxy)pyrazin-2-yl)ethyl)cyclopropanecarboxamide]	≤ 300 nM
C[C@H](NC(=O)[C@@H]1C[C@H]1c1cccc(OCc2ccccc2)c1)c1ccc(OCC(F)(F)F)cn1 (stereo in doubt) [Example 346, (1R*,2R*)-2-(3-(benzyloxy)phenyl)-N-((S)-1-(5-(2,2,2-trifluoroethoxy)pyridin-2-yl)ethyl)cyclopropanecarboxamide]	≤ 300 nM
C[C@@H](NC(=O)C1CC1c1cc(F)cc(F)c1)c1cnc(OCC(F)(F)F)cn1 (stereo in doubt) [Example 194, trans-2-(3,5-difluorophenyl)-N-((R)-1-(5-(2,2,2-trifluoroethoxy)pyrazin-2-yl)ethyl)cyclopropanecarboxamide]	≤ 300 nM
C[C@@H](NC(=O)C1CC1c1cc2cc(F)ccc2[nH]1)c1ccc(OCC(F)(F)F)cn1 (stereo in doubt) [Example 125, trans-2-(5-fluoro-1H-indol-2-yl)-N-((R)-1-(5-(2,2,2-trifluoroethoxy)pyridin-2-yl)ethyl)cyclopropanecarboxamide]	≤ 300 nM
C[C@@H](NC(=O)C1CC1c1ccc2cc[nH]c2c1)c1ccc(OCC(F)(F)F)nc1 (stereo in doubt) [Example 147, trans-2-(1H-indol-6-yl)-N-((R)-1-(6-(2,2,2-trifluoroethoxy)pyridin-3-yl)ethyl)cyclopropanecarboxamide]	≤ 300 nM
